Reference: US8394742B2, “Methods, compounds and compositions with genotype selective anticancer activity” (The Translation Genomics Research Institute, priority 2005, dated 2013)

Key:
[1] = test system: DPC4 isogenic cell lines (BxPC-3-vector and BxPC-3-DPC4); test: Pharmacological synthetic lethal screening in DPC4 isogenic cell lines; assay type: cell-based, human; details: reexpression isogenic cell lines
Description: To find molecules that selectively kill cells with specific deficiencies, Applicants use cell proliferation assays to screen molecules libraries in a high throughput manner. These molecule libraries can be small organic compounds, siRNA libraries, antisense libraries and antibody/protein libraries. To carry out the screening in an efficient and cost-effective way, Applicants have designed a procedure for the screening of small organic compound libraries which consists of three steps, namely Toxicity Screen, Synthetic Lethal Screen and Selectivity Screen (FIG. 12). […]
In the Selectivity Screening, compounds are tested against cancer cell lines with a specific loss-of-function mutation and normal cells (HPDE6 and FORF-TERT). Depending on their approximate potency assessed in the Synthetic lethal Screening, compounds are tested in a range of concentrations (8 concentrations per agent) in Selectivity Screening. […]
After generating the isogenic cell lines for the DPC4 gene, Applicants then carried out a screening process using the cell lines with the aim to identify compounds that selectively kill cells with deficient DPC4 function. […] In each round, the anti-proliferative activity of compounds was evaluated in different cell lines using the CellTiter 96 Non-Radioactive Cell Proliferation Assay (Promega). […]

[2] = test system: IMR-90; test: MTS cell proliferation assay, IMR-90 normal fibroblasts; assay type: cell-based, human; details: IMR-90, even at 200 μM
Method: (§1) The inhibition of cell proliferation by library compounds was evaluated using the CellTiter 96 Non-Radioactive Cell Proliferation Assay following the protocol recommended by the manufacturer (Promega, Madison Wis.). Briefly, 2000 cells were seeded in each well of 96-well plates in 90 μl growth medium. Cells were allowed to attach overnight followed by addition of 10 μl of serially diluted compounds into the plates. After incubation for 4 days at 37° C. in a humidified incubator, 20 μl of a 20:1 mixture of (3-(4,5-dimethylthiazol-2-yl)-5-(3-carboxymethoxyphenyl)-2-(4-sulfophenyl)-2H-tetrazolium, inner salt (MTS, 2 mg/ml) and an electron coupling reagent, phenazine methosulfate (PMS, 0.92 mg/ml), was added to each well and incubated for 3 hours at 37° C. Absorbance was then measured using the Wallace Victor microplate reader at 490 nm (PerkinElmer, Wellesley, Mass.). Data were expressed as the percentage of cell growth calculated from the absorbance corrected for background absorbance. The surviving fraction of cells was determined by dividing the mean absorbance values of the treated samples by the mean absorbance values of the DMSO control.
(§2) After generating the isogenic cell lines for the DPC4 gene, Applicants then carried out a screening process using the cell lines with the aim to identify compounds that selectively kill cells with deficient DPC4 function. […]

[3] = test system: BxPC-3-vector cells; test: MTS based cell proliferation assay, BxPC-3-vector cells; set-up: species or system human; details: BxPC-3-vector (BxPc3Vc, pMSCVneo empty vector), 4 days
Method: as §1, §2

In the case of O=C1c2ccccc2C(=O)c2c1ccc1c(=O)n(-c3ccccc3)[nH]c21 [UA62001, 2-phenyl-1H-Naphth [2,3-g]indazole-3,6,11(2H)-trione], the “selectivity against DPC4 deficiency” value [1] is reported as “DPC4 genotype selectivity”, the growth inhibition [2] is reported as “little growth inhibition” and the IC50 [3] is reported as 3.2 ± 0.45 µM. The IC50 ([3]; Homo sapiens, 96 h) was 3 µM.
